# Results from ChEMBL document CHEMBL3885881, “DrugMatrix”.
# Species on record: Rattus norvegicus
# Assay: DrugMatrix - Regimen: Daily Repeat
# Assay type: toxicity, organism-based, Sprague-Dawley
# Design: regimen Daily Repeat, gender Male, age 6-8 weeks
# Conditions: in vivo, iv, vehicle 100 % SALINE; for ABSOLUTE BASOPHIL / ABSOLUTE EOSINOPHIL / ABSOLUTE LYMPHOCYTE / ABSOLUTE MONOCYTE / ABSOLUTE SEGMENTED NEUTROPHIL / BASOPHIL / EOSINOPHIL / ERYTHROCYTE COUNT / HEMATOCRIT / HEMOGLOBIN / LEUKOCYTE COUNT / LYMPHOCYTE / MEAN CORPUSCULAR HEMOGLOBIN / MEAN CORPUSCULAR HEMOGLOBIN CONCENTRATION / MEAN CORPUSCULAR VOLUME / MONOCYTE / NEUTROPHIL / NUCLEATED RED BLOOD CELLS / PLATELET COUNT: tissue Blood; for ALANINE AMINOTRANSFERASE / ALBUMIN / ALKALINE PHOSPHATASE / ASPARTATE AMINOTRANSFERASE / BLOOD UREA NITROGEN / CARBON DIOXIDE / CHLORIDE / CHOLESTEROL / CREATINE PHOSPHOKINASE / CREATININE / GLUCOSE / LACTATE DEHYDROGENASE / LIPASE / PHOSPHORUS / POTASSIUM / SODIUM / TOTAL BILIRUBIN / TOTAL PROTEIN / URIC ACID: tissue Plasma
# [1] = 0 mg/kg, 72 h, dose level Control, time 3 day
# [2] = 0 mg/kg, 120 h, dose level Control, time 5 day
# [3] = 7 mg/kg, 72 h, dose level Low, time 3 day
compound,measurement,setting,value
CC(=O)N[C@@H]1[C@H](Oc2c3cc4cc2Oc2ccc(cc2Cl)[C@@H](O[C@@H]2O[C@@H](CO)[C@@H](O)[C@H](O)[C@@H]2NC(C)=O)[C@@H]2NC(=O)[C@H](NC(=O)[C@@H]4NC(=O)[C@H]4NC(=O)[C@@H](Cc5ccc(c(Cl)c5)O3)NC(=O)[C@H](N)c3ccc(O)c(c3)Oc3cc(O)cc4c3)c3ccc(O)c(c3)-c3c(O[C@H]4O[C@H](CO)[C@@H](O)[C@@H](O)[C@@H]4O)cc(O)cc3[C@@H](C(=O)O)NC2=O)O[C@@H](CO)[C@@H](O)[C@@H]1O,ABSOLUTE BASOPHIL,[1],0 CELLS/uL
same,ABSOLUTE EOSINOPHIL,[1],193.5 CELLS/uL
same,ABSOLUTE LYMPHOCYTE,[1],15717.5 CELLS/uL
same,ABSOLUTE MONOCYTE,[1],389.33 CELLS/uL
same,ABSOLUTE SEGMENTED NEUTROPHIL,[1],1883 CELLS/uL
same,BASOPHIL,[1],0%
same,EOSINOPHIL,[1],1.17%
same,ERYTHROCYTE COUNT,[1],5.68 x10E6/uL
same,HEMATOCRIT,[1],35.83%
same,HEMOGLOBIN,[1],13.48 G/DL
same,LEUKOCYTE COUNT,[1],18.18 x10E3/uL
same,LYMPHOCYTE,[1],86.67%
same,MEAN CORPUSCULAR HEMOGLOBIN,[1],23.8 pg
same,MEAN CORPUSCULAR HEMOGLOBIN CONCENTRATION,[1],37.68 G/DL
same,MEAN CORPUSCULAR VOLUME,[1],63.27 fL
same,MONOCYTE,[1],2.17%
same,NEUTROPHIL,[1],10%
same,NUCLEATED RED BLOOD CELLS,[1],0 /100WBC
same,PLATELET COUNT,[1],1186.33 x10E3/uL
same,ALANINE AMINOTRANSFERASE,[1],68.5 u/L
same,ALBUMIN,[1],4.37 G/DL
same,ALKALINE PHOSPHATASE,[1],396.33 u/L
same,ASPARTATE AMINOTRANSFERASE,[1],92.5 u/L
same,BLOOD UREA NITROGEN,[1],18 mg/dL
same,CARBON DIOXIDE,[1],24.33 mmol/L
same,CHLORIDE,[1],102.4 MEQ/L
same,CHOLESTEROL,[1],67.17 mg/dL
same,CREATINE PHOSPHOKINASE,[1],378.67 u/L
same,CREATININE,[1],0.19 mg/dL
same,GLUCOSE,[1],178.33 mg/dL
same,LACTATE DEHYDROGENASE,[1],245.17 u/L
same,LIPASE,[1],9.2 u/L
same,PHOSPHORUS,[1],12.37 mg/dL
same,POTASSIUM,[1],6.48 MEQ/L
same,SODIUM,[1],143.28 MEQ/L
same,TOTAL BILIRUBIN,[1],0.23 mg/dL
same,TOTAL PROTEIN,[1],5.65 G/DL
same,URIC ACID,[1],1.6 mg/dL
same,ABSOLUTE BASOPHIL,[2],0 CELLS/uL
same,ABSOLUTE EOSINOPHIL,[2],27.5 CELLS/uL
same,ABSOLUTE LYMPHOCYTE,[2],13593.17 CELLS/uL
same,ABSOLUTE MONOCYTE,[2],576 CELLS/uL
same,ABSOLUTE SEGMENTED NEUTROPHIL,[2],1836.67 CELLS/uL
same,BASOPHIL,[2],0%
same,EOSINOPHIL,[2],0.17%
same,ERYTHROCYTE COUNT,[2],5.99 x10E6/uL
same,HEMATOCRIT,[2],37.42%
same,HEMOGLOBIN,[2],13.78 G/DL
same,LEUKOCYTE COUNT,[2],16.03 x10E3/uL
same,LYMPHOCYTE,[2],85.17%
same,MEAN CORPUSCULAR HEMOGLOBIN,[2],23.08 pg
same,MEAN CORPUSCULAR HEMOGLOBIN CONCENTRATION,[2],36.83 G/DL
same,MEAN CORPUSCULAR VOLUME,[2],62.6 fL
same,MONOCYTE,[2],3.5%
same,NEUTROPHIL,[2],11.17%
same,NUCLEATED RED BLOOD CELLS,[2],0 /100WBC
same,PLATELET COUNT,[2],1352.5 x10E3/uL
same,ALANINE AMINOTRANSFERASE,[2],49.83 u/L
same,ALBUMIN,[2],4.25 G/DL
same,ALKALINE PHOSPHATASE,[2],331.33 u/L
same,ASPARTATE AMINOTRANSFERASE,[2],86.17 u/L
same,BLOOD UREA NITROGEN,[2],19.5 mg/dL
same,CARBON DIOXIDE,[2],26.67 mmol/L
same,CHLORIDE,[2],103 MEQ/L
same,CHOLESTEROL,[2],67.5 mg/dL
same,CREATINE PHOSPHOKINASE,[2],346.17 u/L
same,CREATININE,[2],0.22 mg/dL
same,GLUCOSE,[2],170.67 mg/dL
same,LACTATE DEHYDROGENASE,[2],405.5 u/L
same,LIPASE,[2],8.83 u/L
same,PHOSPHORUS,[2],11.3 mg/dL
same,POTASSIUM,[2],6.06 MEQ/L
same,SODIUM,[2],143.4 MEQ/L
same,TOTAL BILIRUBIN,[2],0.17 mg/dL
same,TOTAL PROTEIN,[2],6.22 G/DL
same,URIC ACID,[2],1.63 mg/dL
same,ABSOLUTE BASOPHIL,[3],0 CELLS/uL
same,ABSOLUTE EOSINOPHIL,[3],340.67 CELLS/uL
same,ABSOLUTE LYMPHOCYTE,[3],16096 CELLS/uL
same,ABSOLUTE MONOCYTE,[3],460.67 CELLS/uL
same,ABSOLUTE SEGMENTED NEUTROPHIL,[3],1602.67 CELLS/uL
same,BASOPHIL,[3],0%
same,EOSINOPHIL,[3],1.67%
same,ERYTHROCYTE COUNT,[3],5.86 x10E6/uL
same,HEMATOCRIT,[3],37.6%
same,HEMOGLOBIN,[3],14.23 G/DL
same,LEUKOCYTE COUNT,[3],18.5 x10E3/uL
same,LYMPHOCYTE,[3],87%
same,MEAN CORPUSCULAR HEMOGLOBIN,[3],24.27 pg
same,MEAN CORPUSCULAR HEMOGLOBIN CONCENTRATION,[3],37.87 G/DL
same,MEAN CORPUSCULAR VOLUME,[3],64.13 fL
same,MONOCYTE,[3],2.67%
same,NEUTROPHIL,[3],8.67%
same,NUCLEATED RED BLOOD CELLS,[3],0 /100WBC
same,PLATELET COUNT,[3],1212.33 x10E3/uL
same,ALANINE AMINOTRANSFERASE,[3],48 u/L
same,ALBUMIN,[3],5.03 G/DL
same,ALKALINE PHOSPHATASE,[3],341.33 u/L
same,ASPARTATE AMINOTRANSFERASE,[3],90.67 u/L
same,BLOOD UREA NITROGEN,[3],21.33 mg/dL
same,CARBON DIOXIDE,[3],21.67 mmol/L
same,CHLORIDE,[3],98.33 MEQ/L
same,CHOLESTEROL,[3],73.33 mg/dL
same,CREATINE PHOSPHOKINASE,[3],336 u/L
same,CREATININE,[3],0.27 mg/dL
same,GLUCOSE,[3],149 mg/dL
same,LACTATE DEHYDROGENASE,[3],410.67 u/L
same,LIPASE,[3],10 u/L
same,PHOSPHORUS,[3],11.57 mg/dL
same,POTASSIUM,[3],7.21 MEQ/L
same,SODIUM,[3],141.2 MEQ/L
same,TOTAL BILIRUBIN,[3],0.27 mg/dL
same,TOTAL PROTEIN,[3],6.07 G/DL
same,URIC ACID,[3],2.23 mg/dL
